Results on 4 molecules are retold here after US8536175B2, “Quinoxaline carboxamide derivatives as protein tyrosine kinase inhibitors” (Novartis AG, priority 2008, dated 2013).

Read-outs that look alike come from different tables or passages of the source.

This assay concerns the target FGFR3 kinase (Homo sapiens (Human), UniProt P22607, K650E). The experiment in a line: FGFR3 kinase inhibition (protein kinase activity assays). Type of assay: biochemical. The procedure:
generic assay set-up: Enzyme activities were measured by mixing 10 μL of a 3-fold concentrated compound solution or control with 10 μL of the corresponding substrate mixture (peptidic substrate, ATP and [γ^33P]ATP). The reactions were initiated by addition of 10 μL of a 3-fold concentrated solution of the respective enzyme in assay buffer. […] Filter binding (FB) method: FB assays were carried out in 96-well plates at room temperature for 10 min in a finial volume of 30 μL including the components as indicated in section above. […] After spotting, vacuum was connected and each well rinsed with 200 μL 0.5% H3PO4. Free membranes were removed and washed 4 times on a shaker with 1% H3PO4 and once with ethanol. Membranes were dried and overlaid with addition of 10 μL/well of a scintillation fluid. The plates were eventually sealed and counted in a microplate scintillation counter. IC50 values were calculated by linear regression analysis of the percentage inhibition of the compound.
generic assay set-up: The assay has been run at room temperature on a liquid handling robot. […] After an incubation time of 45 min in the dark, the plates were transferred into a fluorescence reader for counting.
Compounds of formula (I) are assayed to measure their capacity to inhibit FGFR3 kinase as described above.

Where [1] appears, read: read-out: rating (FGFR3 kinase IC50).

For orientation: IC50 means the concentration at which inhibition is half-maximal.

Chain of FGFR3 kinase (P22607 23-806 K650E): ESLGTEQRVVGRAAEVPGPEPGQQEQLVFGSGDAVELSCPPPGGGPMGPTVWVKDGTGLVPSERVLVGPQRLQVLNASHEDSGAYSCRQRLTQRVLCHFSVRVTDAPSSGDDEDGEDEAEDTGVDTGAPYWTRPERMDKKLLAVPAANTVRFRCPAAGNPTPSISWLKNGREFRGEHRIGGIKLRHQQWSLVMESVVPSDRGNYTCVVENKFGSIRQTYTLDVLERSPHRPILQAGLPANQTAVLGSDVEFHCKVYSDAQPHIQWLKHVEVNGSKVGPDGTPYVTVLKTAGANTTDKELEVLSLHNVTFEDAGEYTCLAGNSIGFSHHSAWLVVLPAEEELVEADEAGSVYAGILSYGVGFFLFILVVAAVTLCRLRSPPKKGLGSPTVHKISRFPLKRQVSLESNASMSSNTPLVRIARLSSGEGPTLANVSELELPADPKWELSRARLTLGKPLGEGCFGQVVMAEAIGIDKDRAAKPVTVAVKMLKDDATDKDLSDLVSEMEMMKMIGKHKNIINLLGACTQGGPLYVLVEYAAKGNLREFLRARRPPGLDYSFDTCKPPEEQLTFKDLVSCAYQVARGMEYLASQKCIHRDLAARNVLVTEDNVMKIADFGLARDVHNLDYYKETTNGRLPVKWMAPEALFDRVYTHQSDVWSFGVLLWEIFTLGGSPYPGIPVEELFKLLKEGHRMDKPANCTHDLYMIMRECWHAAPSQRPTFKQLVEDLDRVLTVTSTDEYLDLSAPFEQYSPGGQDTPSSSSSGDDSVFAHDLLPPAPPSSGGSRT

On to `Cc1cscc1-c1ccc(C(=O)Nc2nc(CN3CCN(C)CC3)c[nH]2)c2nccnc12` [Example 69, 8-(4-Methyl-thiophen-3-yl)-quinoxaline-5-carboxylic acid [4-(4-methyl-piperazin-1-ylmethyl)-1H-imidazol-2-yl]amide], for which the IC50 (average of 2 independent measurements, * single value, read-out: FGFR3 IC50) was greater than 10 µM.

For the molecule `COc1cc(OC)c(Cl)c(-c2ccc(C(=O)Nc3ccn(CCN(C)C)c3)c3nccnc23)c1Cl` [Example 121, 8-(2,6-Dichloro-3,5-dimethoxy-phenyl)-quinoxaline-5-carboxylic acid [1-(2-dimethylamino-ethyl)-1H-pyrrol-3-yl]-amide], the IC50 under setting [1] lay in the range of 0.5 to 50 µM.

Regarding `COc1cc(OC)c(Cl)c(-c2ccc(C(=O)Nc3ccc(N4CCN(C(C)C)CC4)nc3)c3nccnc23)c1Cl` [Example 33, 8-(2,6-Dichloro-3,5-dimethoxy-phenyl)-quinoxaline-5-carboxylic acid [6-(4-isopropyl-piperazin-1-yl)-pyridin-3-yl]-amide], under setting [1], the IC50 was less than 0.1 µM.

Regarding `COc1cc(OC)c(Cl)c(-c2ccc(C(=O)Nc3ccc(CN4CCNCC4)nc3)c3ncccc23)c1Cl` [Example 171, 5-(2,6-Dichloro-3,5-dimethoxy-phenyl)-quinoline-8-carboxylic acid (6-piperazin-1-ylmethyl-pyridin-3-yl)-amide], under setting [1], the IC50 is 0.5 to 50 µM.
